# Source: EPA's ToxRefDB 2
# Legend:
# [1] = system: rat; conditions: Subchronic oral toxicity in rodents, sprague dawley, Gavage/Intubation, dose end: 93 day, group: systemic
# [2] = system: dog; conditions: Subchronic oral toxicity in nonrodent, beagle, Gavage/Intubation, dose end: 94 day, group: systemic
# [3] = system: rat; conditions: Sub-acute repeat dose toxicity, sprague dawley, Oral, Gavage/Intubation, dose end: 15 day, group: systemic
# [4] = system: rabbit; conditions: Prenatal developmental toxicity study, Oral, Gavage/Intubation, dose end: 20 GD, group: maternal
# [5] = system: dog; conditions: Chronic toxicity, beagle, Oral, Gavage/Intubation, dose end: 272 day, group: systemic
# [6] = system: rat; conditions: Sub-acute repeat dose toxicity; Oral; Gavage/Intubation; dose end: 36 day; group: systemic; systemic / in life observation / body weight / body weight + systemic / in life observation / food consumption / food consumption
# [7] = system: rabbit; conditions: Sub-acute repeat dose toxicity, new zealand white, Oral, Gavage/Intubation, dose end: 5 day, group: systemic
# [8] = system: rabbit; conditions: Prenatal developmental toxicity study, Oral, Gavage/Intubation, dose end: 20 GD, group: maternal; remark: listed apart in the source
# [9] = system: rat; conditions: Fertility (Segment I), Oral, Gavage/Intubation, dose end: 1 generation
# [10] = system: rat; conditions: Prenatal developmental toxicity study, Oral, Gavage/Intubation, dose end: 18 GD
# [11] = system: rat; conditions: Prenatal developmental toxicity study, Oral, Gavage/Intubation, dose end: 21 GD
# [12] = system: dog; conditions: Sub-acute repeat dose toxicity, beagle, Oral, Gavage/Intubation, dose end: 22 day, group: systemic
# [13] = system: rat; conditions: Sub-acute repeat dose toxicity, sprague dawley, Oral, Gavage/Intubation, dose end: 15 day, group: systemic; remark: listed apart in the source
# [14] = system: rat; conditions: Sub-acute repeat dose toxicity; sprague dawley; Oral; Gavage/Intubation; dose end: 5 day; group: systemic; systemic / clinical chemistry / aspartate aminotransferase (ast/sgot) / aspartate aminotransferase (ast/sgot) + systemic / in life …
# [15] = system: rat; conditions: Chronic toxicity; sprague dawley; Oral; Gavage/Intubation; dose end: 182 day; group: systemic; systemic / clinical chemistry / [other] / [other] + systemic / clinical chemistry / cholesterol / cholesterol + systemic / clinical …
# [16] = system: dog; conditions: Subchronic oral toxicity in nonrodent, beagle, Capsule, dose end: 13 week, group: systemic
# [17] = system: rat; conditions: Subchronic oral toxicity in rodents, fischer, Feed, dose end: 13 week, group: systemic
# [18] = system: rabbit; conditions: Prenatal developmental toxicity study; new zealand white; Oral; Gavage/Intubation; dose end: 19 GD; group: maternal; systemic / in life observation / body weight / body weight gain + systemic / in life observation / clinical signs / altered breathing rate…
# [19] = system: dog; conditions: Chronic toxicity; beagle; Oral; Capsule; dose end: 52 week; group: systemic; systemic / hematology / mean corpuscular hemoglobin (mch) / mean corpuscular hemoglobin (mch) + systemic / hematology / mean corpuscular …
# [20] = system: mouse; conditions: Carcinogenicity, cd1, Oral, Feed, dose end: 80 week, group: systemic
# [21] = system: rat; conditions: Multigenerational reproductive toxicity study, sprague dawley, Oral, Feed, dose end: 2 generation; for LEL / NEL: systemic / organ weight / liver / relative to body weight
# [22] = system: rat; conditions: Combined chronic toxicity/carcinogenicity, fischer, Oral, Feed, dose end: 104 week, group: systemic
# [23] = system: rat; conditions: Prenatal developmental toxicity study, sprague dawley, Oral, Gavage/Intubation, dose end: 15 GD
# [24] = systemic / in life observation / body weight / body weight gain + systemic / clinical chemistry / [other] / [other] + systemic / clinical …
# [25] = systemic / organ weight / liver / absolute
# [26] = systemic / organ weight / liver / absolute + systemic / clinical chemistry / [other] / [other] + systemic / clinical chemistry / alkaline …
# [27] = systemic / clinical chemistry / [other] / [other] + systemic / clinical chemistry / cytochrome p450, nos / cytochrome p450, nos + systemic…
# [28] = systemic / in life observation / body weight / body weight + systemic / in life observation / clinical signs / alopecia + systemic / in life…
# [29] = systemic / in life observation / clinical signs / altered breathing rate + systemic / in life observation / clinical signs / convulsions + …
# [30] = systemic / clinical chemistry / alkaline phosphatase (alp/alk) / alkaline phosphatase (alp/alk) + systemic / in life observation / clinical …
# [31] = systemic / in life observation / body weight / body weight + systemic / in life observation / clinical signs / altered breathing rate + …
# [32] = systemic / in life observation / mortality / mortality + systemic / in life observation / body weight / body weight gain + systemic / in …
# [33] = group: maternal, reproductive / reproductive performance / estrous cycle / corpora lutea + reproductive / reproductive performance / implantations / …
# [34] = group: parental, systemic / in life observation / body weight / body weight + systemic / in life observation / body weight / body weight gain + systemic / in…
# [35] = group: developmental, systemic / in life observation / body weight / fetal weight
# [36] = group: maternal, systemic / in life observation / body weight / body weight gain + systemic / in life observation / clinical signs / alopecia + systemic / in…
# [37] = group: maternal, systemic / in life observation / body weight / body weight gain + systemic / in life observation / food consumption / food consumption + …
# [38] = systemic / in life observation / body weight / body weight gain + systemic / in life observation / food consumption / food consumption + …
# [39] = systemic / clinical chemistry / glucose / glucose + systemic / clinical chemistry / alanine aminotransferase (alt/sgpt) / alanine …
# [40] = systemic / clinical chemistry / cholesterol / cholesterol + systemic / hematology / hematocrit (hct) / hematocrit (hct) + systemic / …
# [41] = systemic / hematology / hematocrit (hct) / hematocrit (hct)
# [42] = group: parental, systemic / in life observation / body weight / body weight gain + systemic / organ weight / liver / relative to body weight + systemic / …
# [43] = systemic / clinical chemistry / protein / protein
# [44] = group: developmental, developmental / developmental malformation / bone / full supernumerary
# [45] = group: developmental, developmental / developmental malformation / bone / full supernumerary + developmental / developmental malformation / bone / incomplete …
# [46] = group: maternal, systemic / organ weight / placenta / nos
# [47] = group: maternal, systemic / organ weight / placenta / nos + systemic / in life observation / body weight / body weight + systemic / in life observation / …
compound,measurement,setting,value
COc1ccc(OC(F)(F)F)cc1CN[C@H]1CCCN[C@H]1c1ccccc1,LEL,[1]; systemic / clinical chemistry / 5' nucleotidase / 5' nucleotidase + systemic / clinical chemistry / aspartate aminotransferase (ast/sgot) / …,30 mg/kg/day
same,LOAEL,[1]; [24],> 150 mg/kg/day
same,NOAEL,[1]; [24],≥ 150 mg/kg/day
same,LEL,[2]; [25],1 mg/kg/day
same,NEL,[2]; [25],< 1 mg/kg/day
same,LOAEL,[2]; [26],> 20 mg/kg/day
same,NOAEL,[2]; [26],≥ 20 mg/kg/day
same,LEL,[3]; [27],50 mg/kg/day
same,NEL,[3]; [27],10 mg/kg/day
same,LOAEL,[3]; [28],> 400 mg/kg/day
same,NOAEL,[3]; [28],≥ 400 mg/kg/day
same,LOAEL,[4]; [29],> 75 mg/kg/day
same,NEL,[4]; [29],25 mg/kg/day
same,NOAEL,[4]; [29],≥ 75 mg/kg/day
same,LEL,[4]; systemic / in life observation / food consumption / food consumption,50 mg/kg/day
same,LOAEL,[5]; [30],> 20 mg/kg/day
same,NOAEL,[5]; [30],≥ 20 mg/kg/day
same,LEL,[5]; systemic / in life observation / clinical signs / salivation,6 mg/kg/day
same,LEL,[6],50 mg/kg/day
same,LOAEL,[6],> 50 mg/kg/day
same,NEL,[6],20 mg/kg/day
same,NOAEL,[6],≥ 50 mg/kg/day
same,LOAEL,[7]; [31],> 200 mg/kg/day
same,NEL,[7]; [31],20 mg/kg/day
same,NOAEL,[7]; [31],≥ 200 mg/kg/day
same,LEL,[7]; systemic / in life observation / body weight / body weight + systemic / in life observation / food consumption / food consumption,100 mg/kg/day
same,LEL,[8]; systemic / in life observation / mortality / mortality,15 mg/kg/day
same,LOAEL,[8]; [32],> 50 mg/kg/day
same,NEL,[8]; [32],5 mg/kg/day
same,NOAEL,[8]; [32],≥ 50 mg/kg/day
same,LEL,[9]; [33],150 mg/kg/day
same,LOAEL,[9]; [33],> 150 mg/kg/day
same,NEL,[9]; [33],50 mg/kg/day
same,NOAEL,[9]; [33],≥ 150 mg/kg/day
same,LOAEL,[9]; [34],> 150 mg/kg/day
same,NEL,[9]; [34],5 mg/kg/day
same,NOAEL,[9]; [34],≥ 150 mg/kg/day
same,LEL,"[9]; group: parental, systemic / in life observation / body weight / body weight gain + systemic / in life observation / clinical signs / alopecia + systemic / in…",50 mg/kg/day
same,LEL,[10]; [35],150 mg/kg/day
same,LOAEL,[10]; [35],> 150 mg/kg/day
same,NOAEL,[10]; [35],≥ 150 mg/kg/day
same,LEL,[10]; [36],75 mg/kg/day
same,LOAEL,[10]; [36],> 150 mg/kg/day
same,NEL,[10]; [36],15 mg/kg/day
same,NOAEL,[10]; [36],≥ 150 mg/kg/day
same,LEL,[11]; [35],100 mg/kg/day
same,LOAEL,[11]; [35],> 100 mg/kg/day
same,NOAEL,[11]; [35],≥ 100 mg/kg/day
same,LEL,[11]; [37],30 mg/kg/day
same,LOAEL,[11]; [37],> 100 mg/kg/day
same,NEL,[11]; [37],10 mg/kg/day
same,NOAEL,[11]; [37],≥ 100 mg/kg/day
same,LEL,[12]; systemic / clinical chemistry / alkaline phosphatase (alp/alk) / alkaline phosphatase (alp/alk),10 mg/kg/day
same,LOAEL,[12]; [30],> 30 mg/kg/day
same,NOAEL,[12]; [30],≥ 30 mg/kg/day
same,LEL,[13]; [27],100 mg/kg/day
same,NEL,[13]; [27],< 100 mg/kg/day
same,LOAEL,[13]; [38],> 200 mg/kg/day
same,NOAEL,[13]; [38],≥ 200 mg/kg/day
same,LEL,[14],400 mg/kg/day
same,LOAEL,[14],> 1000 mg/kg/day
same,NEL,[14],< 400 mg/kg/day
same,NOAEL,[14],≥ 1000 mg/kg/day
same,LEL,[15],30 mg/kg/day
same,LOAEL,[15],> 100 mg/kg/day
same,NEL,[15],5 mg/kg/day
same,NOAEL,[15],≥ 100 mg/kg/day
Clc1ccc(C2(Cn3cncn3)CC(Br)CO2)c(Cl)c1 (stereo unspecified) [Bromuconazole],LOAEL,[16]; systemic / clinical chemistry / glucose / glucose,25 mg/kg/day
same,NEL,[16]; [39],2.5 mg/kg/day
same,NOAEL,[16]; [39],2.5 mg/kg/day
same,LEL,[16]; systemic / clinical chemistry / glucose / glucose + systemic / organ weight / liver / relative to body weight,25 mg/kg/day
same,LOAEL,[17]; [40],68.1 mg/kg/day
same,NOAEL,[17]; [40],13.8 mg/kg/day
same,LEL,[17]; [41],2.72 mg/kg/day
same,NEL,[17]; [41],< 2.72 mg/kg/day
same,LEL,[18],50 mg/kg/day
same,LOAEL,[18],50 mg/kg/day
same,NEL,[18],12.5 mg/kg/day
same,NOAEL,[18],12.5 mg/kg/day
same,LEL,[19],25 mg/kg/day
same,LOAEL,[19],25 mg/kg/day
same,NEL,[19],2.5 mg/kg/day
same,NOAEL,[19],2.5 mg/kg/day
same,LOAEL,[20]; systemic / in life observation / body weight / body weight gain,113 mg/kg/day
same,NOAEL,[20]; systemic / in life observation / body weight / body weight gain + systemic / pathology microscopic / liver / adenoma + systemic / organ …,10.8 mg/kg/day
same,NEL,[20]; systemic / organ weight / liver / absolute + systemic / organ weight / liver / relative to body weight + systemic / organ weight / adrenal …,370 mg/kg/day
same,LOAEL,"[21]; group: offspring, systemic / in life observation / body weight / offspring (pup) weight gain",141 mg/kg/day
same,NOAEL,"[21]; group: offspring, systemic / in life observation / body weight / offspring (pup) weight gain + developmental / offspring survival late / viability index / …",13.8 mg/kg/day
same,LEL,[21]; group: offspring,1.6 mg/kg/day
same,NEL,[21]; group: offspring,< 1.6 mg/kg/day
same,LOAEL,[21]; [42],141 mg/kg/day
same,NOAEL,[21]; [42],13.8 mg/kg/day
same,LEL,[21]; group: parental,1.3 mg/kg/day
same,NEL,[21]; group: parental,< 1.3 mg/kg/day
same,LEL,[22]; [43],0.88 mg/kg/day
same,NEL,[22]; [43],< 0.88 mg/kg/day
same,LOAEL,[22]; systemic / pathology microscopic / liver / vacuolization,8.27 mg/kg/day
same,NOAEL,[22]; systemic / pathology microscopic / liver / vacuolization + systemic / in life observation / body weight / body weight + systemic / in life …,1.09 mg/kg/day
same,LEL,[23]; [44],70 mg/kg/day
same,LOAEL,[23]; [44],70 mg/kg/day
same,NEL,[23]; [45],10 mg/kg/day
same,NOAEL,[23]; [45],10 mg/kg/day
same,LEL,[23]; [46],70 mg/kg/day
same,LOAEL,[23]; [46],70 mg/kg/day
same,NEL,[23]; [47],10 mg/kg/day
same,NOAEL,[23]; [47],10 mg/kg/day
